Measurements as given in US12350290B2, “Compositions and methods that promote hypoxia or the hypoxia response for treatment and prevention of mitochondrial dysfunction and oxidative stress disorders” (The General Hospital Corporation, priority 2015, dated 2025).

Columns and labels:
[1] = tested on: HIF1α; assay: HIF1α stabilization in cell culture; type: cell-based; settings: for effect of respiratory chain inhibition on HIF1α stabilization: hypoxia, respiratory chain inhibitor alone
Text: It has previously been noted that a paradox exists between mitochondrial dysfunction and cellular sensing of hypoxia (Chandel et al., Proc. Natl. Acad. Sci. U.S.A. 95:11715-20 (1998)). In cell culture, inhibition of the respiratory chain prevents HIF stabilization, even under low oxygen conditions that would otherwise trigger the hypoxia response. Proposed explanations include higher cellular oxygen tensions and […] ROS production during states of mitochondrial dysfunction. While this phenomenon has been noted in the hypoxia field, it has received less attention in the context of mitochondrial disease pathogenesis. If such a paradox extends to mitochondrial disease patients, such individuals may be unable to stabilize HIF in physiological conditions of hypoxia.

[2] = tested on: hypoxia response elements (HREs) fused to GFP; assay: Zebrafish hypoxia reporter strain (HRE-GFP) fluorescence; type: in vivo; settings: 6 hours of exposure to 2.5 μM FG-4592
Text: A zebrafish reporter strain was used to monitor activation of the hypoxia transcriptional response (Santhakumar et al., Cancer Res. 72, 4017-27 (2012)). The reporter fish has a promoter containing hypoxia response elements (HREs) fused to GFP. Hypoxia exposure or VHL knockdown causes an increase in GFP expression, allowing for in vivo monitoring of the hypoxia response. This model system could be used to monitor drug-target engagement and pharmacodynamics of a HIF activator (Chowdhury et al., ACS Chem Biol. 8:1488-96 (2013)).
Antimycin inhibits oxygen consumption of zebrafish embryos (Stackley, et al., PLOS One. 6, e25652 (2011)).

[3] = tested on: zebrafish embryos; assay: Zebrafish embryo survival with Antimycin
[4] = tested on: HT-29s, HEK 293s and K562s; assay: Rescue of growth defect caused by respiratory chain inhibition; type: cell-based
Text: After VHL was confirmed as an effective therapeutic target for mitochondrial disease, clinically-relevant options for triggering the hypoxia response were studied. While a VHL-inhibitor has been reported (Buckley et al., J. Am. Chem. Soc. 134:4465-68 (2012)), it is not cell permeable. However, PHD inhibitors have been extensively developed for the treatment of anemia of chronic kidney disease and ischemic injury (Rabinowitz, J. Med. Chem. 56:9369-9402 (2013)). The small molecule PHD inhibitor, FG-4592, also known as roxadustat, is currently in Phase III clinical trials for chronic kidney disease. […] FG-4592 treatment may mimic VHL-knockout, thus triggering a broader hypoxia transcriptional program. Compounds that trigger the hypoxia response including VHL-inhibitors and PHD inhibitors are therapeutics for mitochondrial dysfunction. Pre-treatment and incubation with FG-4592 almost completely rescued the growth defects caused by deficiency of multiple respiratory complexes, in multiple cell lines (FIGS. 12-13). […] Complex I, III or V inhibition stunts cell growth in most cell lines, including HT-29s, HEK 293s and […]. […] The nearly full rescue of the disease state across different cell lines and across chemical lesions highlights the general utility of this approach.

[5] = tested on: HIF-responsive genes (HK2, GLUT1, LDHA, PDK1); assay: Transcription of energy metabolism genes (hypoxia transcriptional program); type: cell-based
Text: The HIF transcriptional response is believed to be protective during states of hypoxia, at least in part by causing a rewiring of energy metabolism. By shifting from aerobic respiration to anaerobic glycolysis, the HIF1α response can maintain the energy supply at low oxygen tensions. FG-4592 caused normoxic stabilization of HIF proteins. […] Glucose import and phosphorylation are rate-limiting steps in the glycolytic flux of many tissues. […] HIF1α activation is also known to shunt the carbon supply away from the TCA cycle and towards the LDH reaction. Several mechanisms have been proposed for this shift away from aerobic respiration, including pyruvate dehydrogenase phosphorylation. […] Thus, cells were unable to mount the appropriate transcriptional response by endogenous mechanisms.

[6] = tested on: multiple cell types; assay: Oxygen consumption as proxy for aerobic respiration; type: cell-based; settings: FG-4592 treatment
Text: (§1) The shift in energy metabolism was confirmed by measuring lactic acid as the end-product of anaerobic glycolysis and oxygen consumption as a proxy for aerobic respiration. […] Thus cells are able to shift towards glycolysis using endogenous defense mechanisms; however, a transcriptional response is needed to increase the glycolytic flux enough to maintain cellular growth rates. Furthermore, basal oxygen consumption was decreased with FG-4592 treatment. This may be protective in the setting of mitochondrial dysfunction, as it may limit the amount of ROS produced by impaired electron transport. Genetic and small molecule activation of the HIF pathway enabled cells to cope with mitochondrial dysfunction at multiple steps of the electron transport chain and in multiple cell types. The small molecule, FG-4592, normoxically stabilized HIF and thereby increased glycolysis beyond allosteric mechanisms. Furthermore, it bypassed the paradox between mitochondrial dysfunction and HIF stabilization during hypoxia.

[7] = tested on: HT-29 cells; assay: Anaerobic glycolysis measured as lactic acid; type: cell-based; settings: basal conditions and with respiratory chain inhibition
Text: as §1

[8] = tested on: K562 cells; assay: Mitochondrial disease model: K562 cell growth with Antimycin; type: cell-based; settings: three weeks
Experimental: Mitochondrial disease was modeled in the suspension cell line, K562, and a CRISPR screen was performed to identify potential drug targets. The natural product, Antimycin, was used as a complex III inhibitor of the respiratory chain. In the presence of Antimycin, the respiratory chain is unable to oxidize high energy reducing equivalents to power ATP production. However, redox recycling by the cytoplasmic lactate dehydrogenase reaction, allows other NAD+ dependent reactions to proceed. […] Mitochondrial disease was modeled with the addition of Antimycin alone (moderate disease) or Antimycin in combination with removal of pyruvate (severe disease), using cell growth as a proxy for disease magnitude (FIG. 3). K562 cells were infected with a ˜65,000 sgRNA library, targeting ˜18,000 genes (Shalem et al., Science, 343:84-88 (2014)). After one week of genome editing, the pool of knockout cells were divided into experimental conditions of untreated, moderate disease and severe disease states (FIG. 4). Samples for an enrichment screen were collected by allowing the knockout pool to grow in selection conditions for three weeks. The relative growth between untreated and moderate disease conditions was 100-fold and between untreated and severe disease conditions was 10,000-fold (FIG. 5). […]

For `Cc1nc(C(=O)NCC(=O)O)c(O)c2ccc(Oc3ccccc3)cc12` [FG-4592, N-[(4-hydroxy-1-methyl-7-phenoxy-3-isoquinolinyl)carbonyl]glycine], the HIF1α stabilization ([1]; hypoxic conditions) was “stabilized HIF1α beyond the endogenous hypoxia response of untreated cells”, the “HIF1α stabilization during respiratory chain inhibition” value ([1]; mitochondrial dysfunction, normoxia or hypoxia) was “enabled HIF1α stabilization in the face of mitochondrial dysfunction” and the HIF1α stabilization ([1]; normoxic conditions) was “stabilized the transcription factor even during normoxia”. For the same compound, the “fluorescence of reporter fish” value [2] was “robust increase in fluorescence”, the “survival of zebrafish embryos” value ([3]; intermediate concentrations of Antimycin) was “nearly doubled survival” and the “rescue of growth under ATP synthase inhibition” value ([4]; ATP synthase inhibition) was “significantly rescued”. For the same compound, the normal growth rates ([4]; no respiratory chain inhibition) was “minimally increased”, the “rescue of growth defect from Complex I, III or V inhibition” value ([4]; ~50 uM FG-4592 in advance and during respiratory chain dysfunction, dose-dependent) was “nearly or completely rescued this growth defect” and the “transcription of glucose transporter 1 (GLUT1)” value ([5]; FG-4592 for 24 h) was “upregulated in multiple cell types”. The “transcription of hexokinase 2 (HK2)” value ([5]; FG-4592 for 24 h) was “upregulated in multiple cell types”, the “transcription of lactate dehydrogenase (LDHA)” value ([5]; FG-4592 treatment) was “similarly upregulated” and the “transcription of pyruvate dehydrogenase kinase (PDK1)” value ([5]; after FG-4592 treatment) was “significant upregulation”. The hypoxia transcriptional program ([5]; during respiratory chain inhibition) was “triggered the hypoxia transcriptional program, even during respiratory chain inhibition”, the basal oxygen consumption [6] was “decreased” and the increase of glycolysis [7] was roughly 60%.
`CC[C@H]1/C=C/C=C/C[C@@H](C)[C@H](O)[C@@](C)(O)C(=O)[C@@H](C)[C@H](O)[C@@H](C)C(=O)[C@@H](C)[C@H](O)[C@@H](C)/C=C/C(=O)O[C@@H]2[C@H](C)[C@H](CC1)O[C@]1(CC[C@H](C)[C@H](C[C@@H](C)O)O1)[C@H]2C` [Oligomycin] was tested, and the “effect of respiratory chain inhibition on HIF1α stabilization” value [1] was “prevented HIF1α stabilization during hypoxia”.
With Antimycin the “effect of respiratory chain inhibition on HIF1α stabilization” value [1] was “prevented HIF1α stabilization during hypoxia”, the “relative growth between untreated and moderate disease conditions” value ([8]; moderate disease: 100 nM Antimycin with 1 mM pyruvate) was 100 fold and the “relative growth between untreated and severe disease conditions” value ([8]; severe disease: 100 nM Antimycin without pyruvate) was 10,000 fold. The “toxicity to zebrafish embryos” value ([3]; prolonged treatment at low nanomolar concentrations) was “resulted in death of embryos”.
